Experimental data taken from patent US20240317739A1, “NOVEL UREA DERIVATIVE COMPOUND AS RON INHIBITOR” (LG CHEM, LTD., priority 2021, published 2024).

What was measured:
[1] = target: RON (Homo sapiens, UniProt Q04912); experiment: Evaluation of inhibitory activity against RON (TR-FRET); type: biochemical; conditions: TR-FRET kinase assay, RON protein
Protocol: In order to measure the inhibitory activity of each of the compounds of Examples against RON, the IC50 of each of the compounds was measured using a Time-Resolved Fluorescence Energy Transfer Chemistry (TR-FRET).
(§1) Specifically, the compound was prepared to a concentration of 1 mM with 100% DMSO and was diluted 10 times in a stepwise manner through 3-fold dilution. 2 ul of the compound diluted in a stepwise manner was added to a 96-well-plate containing 48 ul of a 1×kinase reaction buffer (50 mM HEPES (pH 7.4), 0.01% Tween-20, 5 mM DTT, 0.5 mM Na3VO4, 2 mM EGTA, 10 mM MgCl2).
The RON protein was diluted to a concentration of 49.3 nM with an RON storage buffer (50 mM Tris-HCl (pH 7.5), 150 mM NaCl, 0.5 mM EDTA, 0.02% Triton X-100), and then diluted again to a concentration of 0.4 nM with a 1×kinase reaction buffer. As a substrate cocktail, a RON-specific substrate mixture (40 uM ULight-labeled Poly GT, 100 nM ATP) at a concentration 2 times the final reaction concentration.
(§2) Thereafter, a 384-well-plate was prepared, and 2.5 μl of each of the diluted compounds of Examples was added to a corresponding well of experimental group wells, and 2.5 μl of a 4% DMSO solution was dispensed into high control wells and low control wells.
(§3) Thereafter, 2.5 μL of 0.4 nM RON was dispensed into the high control wells and the experimental group wells, and 2.5 μL of a 1× kinase reaction buffer was added to the low control wells, and the RON and the reaction buffer were centrifuged at room temperature for 40 seconds at 1000 RPM, and then incubated at room temperature for 20 to 30 minutes. Then, 5 uL of a substrate cocktail (2×) was dispensed into all wells, centrifuged at room temperature for 40 seconds at 1000 RPM, and then incubated at room temperature for 60 minutes. Thereafter, 5 uL of 30 mM EDTA was added to all wells to terminate the reaction, and then incubated again at room temperature for 5 minutes. Thereafter, 5 uL of a 4× phosphotyrosine antibody (Perkin Elmer) containing europium was added to all wells, and then incubated at room temperature for 60 minutes. After the incubation, the 384-well-plate was read with a Vison plate reader. At this time, the excitation wavelength was 340 nm, and the emission wavelength was 620 nm and 665 nm. The IC50 value of the compound of each Example was derived using the GraphPd Prism7 program.

[2] = target: cMET (Homo sapiens, UniProt P08581); experiment: Evaluation of inhibitory activity against MET (TR-FRET); type: biochemical; conditions: TR-FRET kinase assay, cMET protein
Chain of cMET (P08581 25-1390): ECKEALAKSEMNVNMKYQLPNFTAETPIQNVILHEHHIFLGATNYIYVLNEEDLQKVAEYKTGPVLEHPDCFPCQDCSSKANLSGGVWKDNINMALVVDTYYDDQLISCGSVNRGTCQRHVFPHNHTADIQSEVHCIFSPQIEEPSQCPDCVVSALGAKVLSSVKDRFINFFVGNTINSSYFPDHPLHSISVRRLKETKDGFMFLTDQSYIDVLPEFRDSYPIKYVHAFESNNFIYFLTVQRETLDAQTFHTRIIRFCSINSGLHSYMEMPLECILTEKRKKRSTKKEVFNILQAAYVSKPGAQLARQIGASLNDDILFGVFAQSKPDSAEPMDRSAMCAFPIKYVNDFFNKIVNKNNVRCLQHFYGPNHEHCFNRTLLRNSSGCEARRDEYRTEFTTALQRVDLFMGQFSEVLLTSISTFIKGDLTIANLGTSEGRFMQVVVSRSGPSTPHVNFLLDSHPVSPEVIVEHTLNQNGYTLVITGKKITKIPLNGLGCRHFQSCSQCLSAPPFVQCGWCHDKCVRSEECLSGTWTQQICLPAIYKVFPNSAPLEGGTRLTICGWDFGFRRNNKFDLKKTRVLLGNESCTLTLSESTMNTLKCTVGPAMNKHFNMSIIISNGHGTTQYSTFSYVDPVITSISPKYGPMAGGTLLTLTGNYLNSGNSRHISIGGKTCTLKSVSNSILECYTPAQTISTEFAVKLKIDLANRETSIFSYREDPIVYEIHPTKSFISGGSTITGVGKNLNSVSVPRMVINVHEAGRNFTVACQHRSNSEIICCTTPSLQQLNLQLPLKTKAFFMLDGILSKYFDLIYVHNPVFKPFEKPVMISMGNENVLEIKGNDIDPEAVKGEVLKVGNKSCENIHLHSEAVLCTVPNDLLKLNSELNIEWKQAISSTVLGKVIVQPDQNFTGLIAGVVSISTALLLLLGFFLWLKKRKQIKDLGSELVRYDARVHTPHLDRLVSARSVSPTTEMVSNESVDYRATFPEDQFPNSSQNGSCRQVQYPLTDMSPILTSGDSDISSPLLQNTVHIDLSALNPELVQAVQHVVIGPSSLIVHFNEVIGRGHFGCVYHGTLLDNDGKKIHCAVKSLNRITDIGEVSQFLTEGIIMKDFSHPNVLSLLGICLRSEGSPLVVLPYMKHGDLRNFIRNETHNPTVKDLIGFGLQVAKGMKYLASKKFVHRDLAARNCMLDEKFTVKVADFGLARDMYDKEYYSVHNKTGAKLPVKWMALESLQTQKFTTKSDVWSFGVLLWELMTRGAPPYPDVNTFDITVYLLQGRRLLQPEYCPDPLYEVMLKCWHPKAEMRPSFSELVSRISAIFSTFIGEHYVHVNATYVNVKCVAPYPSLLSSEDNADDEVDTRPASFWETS
Protocol: In addition, in order to measure the enzyme activity inhibition for cMET, the evaluation was performed in the same manner as the enzyme activity inhibition measurement experiment for the RON.
as §1, with “a 1× kinase” for “a 1×kinase”, “7.4), 0.05% BSA, 0.005%” for “7.4), 0.01%”, “Tween-20, 1” for “Tween-20, 5”, “mM MnCl2, 20” for “mM Na3VO4, 2 mM EGTA, 10”
The cMET protein was diluted to a concentration of 263 nM with a cMET storage buffer (50 mM Tris-HCl (pH 7.5), 150 mM NaCl, 0.05% Brij35, 1 mM DTT, 10% Glycerol), and then diluted again to a concentration of 2 nM with a 1× kinase reaction buffer. As a substrate cocktail, a MET-specific substrate mixture (5 uM TK peptide, […]) at a concentration 2 times the final reaction concentration.
as §2
as §3, with “of 2” for “of 0.4”, “nM cMET” for “nM RON”, “of 90” for “of 30”, “The […]” for “The IC50”

Chain of RON (Q04912 25-1400, species assumed): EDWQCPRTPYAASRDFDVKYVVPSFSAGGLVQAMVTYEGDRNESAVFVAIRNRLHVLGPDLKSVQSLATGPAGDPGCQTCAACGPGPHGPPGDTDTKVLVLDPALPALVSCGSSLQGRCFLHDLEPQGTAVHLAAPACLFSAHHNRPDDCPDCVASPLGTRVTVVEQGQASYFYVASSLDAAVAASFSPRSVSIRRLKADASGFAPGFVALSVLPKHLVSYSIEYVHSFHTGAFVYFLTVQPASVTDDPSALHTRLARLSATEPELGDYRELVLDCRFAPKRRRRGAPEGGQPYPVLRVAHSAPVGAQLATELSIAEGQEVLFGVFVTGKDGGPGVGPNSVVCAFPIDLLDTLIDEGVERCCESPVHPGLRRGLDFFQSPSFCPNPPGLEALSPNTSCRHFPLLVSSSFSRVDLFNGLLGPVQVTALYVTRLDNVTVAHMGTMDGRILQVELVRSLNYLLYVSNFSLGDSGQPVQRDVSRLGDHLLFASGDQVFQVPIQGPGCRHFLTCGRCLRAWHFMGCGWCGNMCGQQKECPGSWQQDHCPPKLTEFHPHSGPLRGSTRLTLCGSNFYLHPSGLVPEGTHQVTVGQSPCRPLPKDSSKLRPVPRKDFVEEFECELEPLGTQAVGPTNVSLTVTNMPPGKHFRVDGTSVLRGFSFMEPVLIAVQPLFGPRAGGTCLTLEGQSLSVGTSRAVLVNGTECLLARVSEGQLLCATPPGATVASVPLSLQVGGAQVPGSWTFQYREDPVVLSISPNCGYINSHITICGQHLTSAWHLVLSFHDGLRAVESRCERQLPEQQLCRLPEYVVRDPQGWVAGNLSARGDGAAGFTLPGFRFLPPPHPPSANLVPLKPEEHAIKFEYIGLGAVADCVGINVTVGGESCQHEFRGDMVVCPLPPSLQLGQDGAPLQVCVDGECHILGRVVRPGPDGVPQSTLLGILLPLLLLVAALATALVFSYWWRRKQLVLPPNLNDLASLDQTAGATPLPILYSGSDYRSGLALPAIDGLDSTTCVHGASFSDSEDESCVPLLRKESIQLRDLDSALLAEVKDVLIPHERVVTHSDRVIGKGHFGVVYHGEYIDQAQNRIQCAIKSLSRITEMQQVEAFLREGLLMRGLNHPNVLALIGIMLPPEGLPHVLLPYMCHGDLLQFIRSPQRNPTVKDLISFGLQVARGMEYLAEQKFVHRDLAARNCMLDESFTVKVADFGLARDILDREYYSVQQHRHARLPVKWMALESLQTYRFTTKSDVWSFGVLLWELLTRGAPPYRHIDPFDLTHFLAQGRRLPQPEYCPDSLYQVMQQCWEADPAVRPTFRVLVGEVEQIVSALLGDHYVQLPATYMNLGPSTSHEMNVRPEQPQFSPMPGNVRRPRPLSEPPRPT

IC50 [1]	IC50 [2]	SMILES
50 to 500 nM	> 5000 nM	CC(C)n1c(=O)[nH]c2nccc(Oc3ccc(NC(=O)c4cnn(-c5ccc(Cl)cn5)c4C(F)(F)F)cc3F)c21 [Example 11, 1-(5-chloropyridine-2-yl)-N-(3-fluoro-4-((1-isopropyl-2-oxo-2,3-dihydro-1H-imidazo[4,5-b]pyridine-7-yl)oxy)phenyl)-5-(trifluoromethyl)-1H-pyrazole-4-carboxamide]
50 to 500 nM	> 5000 nM	CC(C)n1c(=O)[nH]c2nccc(Oc3ccc(NC(=O)c4cnn(-c5cccc(C(F)(F)F)n5)c4C(F)(F)F)cc3F)c21 [Example 22, N-(3-fluoro-4-((1-isopropyl-2-oxo-2,3-dihydro-1H-imidazo[4,5-b]pyridine-7-yl)oxy)phenyl)-5-(trifluoromethyl)-1-(6-(trifluoromethyl)pyridine-2-yl)-1H-pyrazole-4-carboxamide]
50 to 500 nM	500 to 5000 nM	CCOc1cccnc1-n1ncc(C(=O)Nc2ccc(Oc3ccnc4[nH]c(=O)n(C(C)C)c34)c(F)c2)c1C(F)(F)F [Example 37, 1-(3-ethoxypyridine-2-yl)-N-(3-fluoro-4-((1-isopropyl-2-oxo-2,3-dihydro-1H-imidazo[4,5-b]pyridine-7-yl)oxy)phenyl)-5-(trifluoromethyl)-1H-pyrazole-4-carboxamide]
< 50 nM	> 5000 nM	Cc1ccnc(-n2ncc(C(=O)Nc3ccc(Oc4ccnc5[nH]c(=O)n(C(C)C)c45)c(F)c3)c2C(F)(F)F)c1 [Example 14, N-(3-fluoro-4-((1-isopropyl-2-oxo-2,3-dihydro-1H-imidazo[4,5-b]pyridine-7-yl)oxy)phenyl)-1-(4-methylpyridine-2-yl)-5-(trifluoromethyl)-1H-pyrazole-4-carboxamide]
< 50 nM	500 to 5000 nM	CC(C)n1c(=O)[nH]c2nccc(Oc3ccc(NC(=O)c4cnn(-c5ncccc5C(F)(F)F)c4C(F)(F)F)cc3F)c21 [Example 12, N-(3-fluoro-4-((1-isopropyl-2-oxo-2,3-dihydro-1H-imidazo[4,5-b]pyridine-7-yl)oxy)phenyl)-5-(trifluoromethyl)-1-(3-(trifluoromethyl)pyridine-2-yl)-1H-pyrazole-4-carboxamide]
< 50 nM	500 to 5000 nM	Cc1cccnc1-n1ncc(C(=O)Nc2ccc(Oc3ccnc4[nH]c(=O)n(C(C)C)c34)c(F)c2)c1C(F)(F)F [Example 8, N-(3-fluoro-4-((1-isopropyl-2-oxo-2,3-dihydro-1H-imidazo[4,5-b]pyridine-7-yl)oxy)phenyl)-1-(3-methylpyridine-2-yl)-5-(trifluoromethyl)-1H-pyrazole-4-carboxamide]
< 50 nM	500 to 5000 nM	CC(C)n1c(=O)[nH]c2nccc(Oc3ccc(NC(=O)c4cnn(-c5ncccc5F)c4C(F)(F)F)cc3F)c21 [Example 7, N-(3-fluoro-4-((1-isopropyl-2-oxo-2,3-dihydro-1H-imidazo[4,5-b]pyridine-7-yl)oxy)phenyl)-1-(3-fluoropyridine-2-yl)-5-(trifluoromethyl)-1H-pyrazole-4-carboxamide]
< 50 nM	500 to 5000 nM	CC(C)n1c(=O)[nH]c2nccc(Oc3ccc(NC(=O)c4cnn(-c5nccc6ccccc56)c4C(F)(F)F)cc3F)c21 [Example 20, N-(3-fluoro-4-((1-isopropyl-2-oxo-2,3-dihydro-1H-imidazo[4,5-b]pyridine-7-yl)oxy)phenyl)-1-(isoquinoline-1-yl)-5-(trifluoromethyl)-1H-pyrazole-4-carboxamide]
< 50 nM	> 5000 nM	CC(C)n1c(=O)[nH]c2nccc(Oc3ccc(NC(=O)c4cnn(-c5cc(Br)ccn5)c4C(F)(F)F)cc3F)c21 [Example 16, 1-(4-bromopyridine-2-yl)-N-(3-fluoro-4-((1-isopropyl-2-oxo-2,3-dihydro-1H-imidazo[4,5-b]pyridine-7-yl)oxy)phenyl)-5-(trifluoromethyl)-1H-pyrazole-4-carboxamide]
50 to 500 nM	500 to 5000 nM	Cc1c(C(=O)Nc2ccc(Oc3ccnc4[nH]c(=O)n(C(C)C)c34)c(F)c2)cnn1-c1cncnc1 [Example 5, N-(3-fluoro-4-((1-isopropyl-2-oxo-2,3-dihydro-1H-imidazo[4,5-b]pyridine-7-yl)oxy)phenyl)-5-methyl-1-(pyrimidine-5-yl)-1H-pyrazole-4-carboxamide]
50 to 500 nM	> 5000 nM	Cc1ccc(-n2ncc(C(=O)Nc3ccc(Oc4ccnc5[nH]c(=O)n(C(C)C)c45)c(F)c3)c2C(F)(F)F)nc1 [Example 9, N-(3-fluoro-4-((1-isopropyl-2-oxo-2,3-dihydro-1H-imidazo[4,5-b]pyridine-7-yl)oxy)phenyl)-1-(5-methylpyridine-2-yl)-5-(trifluoromethyl)-1H-pyrazole-4-carboxamide]
< 50 nM	500 to 5000 nM	CCc1cccnc1-n1ncc(C(=O)Nc2ccc(Oc3ccnc4[nH]c(=O)n(C(C)C)c34)c(F)c2)c1C(F)(F)F [Example 29, 1-(3-ethylpyridine-2-yl)-N-(3-fluoro-4-((1-isopropyl-2-oxo-2,3-dihydro-1H-imidazo[4,5-b]pyridine-7-yl)oxy)phenyl)-5-(trifluoromethyl)-1H-pyrazole-4-carboxamide]
> 5000 nM	> 5000 nM	CC(C)n1c(=O)[nH]c2nccc(Oc3ccc(NC(=O)c4cnn(-c5ccc(C(F)(F)F)cn5)c4C(F)(F)F)cc3F)c21 [Example 13, N-(3-fluoro-4-((1-isopropyl-2-oxo-2,3-dihydro-1H-imidazo[4,5-b]pyridine-7-yl)oxy)phenyl)-5-(trifluoromethyl)-1-(5-(trifluoromethyl)pyridine-2-yl)-1H-pyrazole-4-carboxamide]
< 50 nM	> 5000 nM	CC(C)n1c(=O)[nH]c2nccc(Oc3ccc(NC(=O)c4cnn(-c5cncnc5)c4C(F)(F)F)cc3F)c21 [Example 4, N-(3-fluoro-4-((1-isopropyl-2-oxo-2,3-dihydro-1H-imidazo[4,5-b]pyridine-7-yl)oxy)phenyl)-1-(pyrimidine-5-yl)-5-(trifluoromethyl)-1H-pyrazole-4-carboxamide]
50 to 500 nM	> 5000 nM	CC(C)n1c(=O)[nH]c2nccc(Oc3ccc(NC(=O)c4cnn(-c5cc(C(F)(F)F)ccn5)c4C(F)(F)F)cc3F)c21 [Example 17, N-(3-fluoro-4-((1-isopropyl-2-oxo-2,3-dihydro-1H-imidazo[4,5-b]pyridine-7-yl)oxy)phenyl)-5-(trifluoromethyl)-1-(4-(trifluoromethyl)pyridine-2-yl)-1H-pyrazole-4-carboxamide]
< 50 nM	500 to 5000 nM	CC(C)n1c(=O)[nH]c2nccc(Oc3ccc(NC(=O)c4cnn(-c5cccnn5)c4C(F)(F)F)cc3F)c21 [Example 35, N-(3-fluoro-4-((1-isopropyl-2-oxo-2,3-dihydro-1H-imidazo[4,5-b]pyridine-7-yl)oxy)phenyl)-1-(pyridazine-3-yl)-5-(trifluoromethyl)-1H-pyrazole-4-carboxamide]
